# Laboratory results: PubChem BioAssay AID652241 (Broad Institute, 2013)
# Results filed as inconclusive are left out. Calls of active or inactive are those of the source.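 Rule for the calls: active = fitted curve reaches activity 50 in the expected rising direction at or below the top valid tested dose; inconclusive = no clear call, values can overlap the other calls; inactive = activity in the wrong direction, and the rest.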 Square brackets hold non-standard residues; d marks the D form. Peptide text beside a SMILES is read from it. ξ: configuration not given here. Ac5c = NC1(C(=O)O)CCCC1; ξP = O=C(O)C1CCCN1
# Molecular target: Virion infectivity factor (Human immunodeficiency virus type 1 group M subtype B (isolate BH10)) + Virion infectivity factor (Human immunodeficiency virus type 1 group M subtype B (isolate BRU/LAI)) + Virion infectivity factor (Human immunodeficiency virus type 1 group M subtype B (isolate PCV12)) + Virion infectivity factor (Human immunodeficiency virus type 1 group M subtype B (isolate HXB2)) (UniProt P69720+P69721+P69722+P69723)
# Sequence (P69720 whole entry, looked up): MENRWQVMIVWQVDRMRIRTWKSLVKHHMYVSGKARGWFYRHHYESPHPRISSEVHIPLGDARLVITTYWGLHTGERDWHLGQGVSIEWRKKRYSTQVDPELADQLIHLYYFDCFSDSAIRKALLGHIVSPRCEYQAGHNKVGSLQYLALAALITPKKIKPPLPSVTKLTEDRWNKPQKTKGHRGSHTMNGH
# Sequence (P69721 whole entry, looked up): as the sequence (P69720 whole entry, looked up) above
# Sequence (P69722 whole entry, looked up): as the sequence (P69720 whole entry, looked up) above
# Sequence (P69723 whole entry, looked up): as the sequence (P69720 whole entry, looked up) above
# Test: dose-dependent disruption of HIV Vif self-association – imaging, HEK293T, cherry-picks, dose response (AID 652241);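 note: imaged cell signal that rises when Vif self-association is disrupted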
# Settings: HEK293T Vif multimerization imaging, 24 h
row,SMILES,AC50
1,O=C(NCc1cccnc1)NC1(C(F)(F)F)Oc2ccc(Cl)cc2O1 (stereo not drawn),9.05 µM
2,Cc1cc(NC(=O)NC2(C(F)(F)F)Oc3ccc(Cl)cc3O2)no1 (stereo not drawn),7.12 µM
3,N#Cc1c(C(F)(F)F)cc(-c2ccco2)nc1SCc1ccncc1,15.8 µM
4,Cc1cc(C)c2nc3sc(C(=O)N4CCOCC4)c(N)c3cc2c1,1.85 µM
5,Cc1ccc(C(c2cc(Cl)c3cccnc3c2O)N2CCN(C)CC2)cc1 (stereo not drawn),5.7 µM
6,COc1cc(C2C3=C(COC3=O)Oc3cc4c(cc32)OCO4)cc(OC)c1O (stereo not drawn),0.849 µM
7,Cc1cccc(Nc2nc(-c3ccc(O)c(O)c3)cs2)n1,> 19.5 µM (inactive)
8,COc1cc(-c2cc(=O)c3c(O)c(OC)c(OC)c(O)c3o2)ccc1O,> 19.5 µM (inactive)
9,Oc1ccc(-c2nc(-c3ccc(O)c(O)c3)cs2)cc1,9.83 µM

# The remaining lines, values ahead:
row,AC50,SMILES
1,14.4 µM,Cc1ccc(CNC(=O)c2cccc3c2C(=O)c2ccc(N4CCC(C)CC4)cc2S3(=O)=O)cc1
2,7.26 µM,CCOc1cc(/C=C2\CN(CC)C/C(=C\c3ccc(O)c(OCC)c3)C2=O)ccc1O
3,> 19.5 µM (inactive),CC(=O)Nc1ccc(S(=O)(=O)N2c3ccccc3C(C)=CC2(C)C)cc1
4,2.45 µM,COc1cc(-c2cnc3c(NC=O)cc(-c4ccccc4)cn23)cc(OC)c1OC
5,15.1 µM,CCN1C(=O)c2cccc3c(S(=O)(=O)Nc4nc(C)cs4)ccc1c23
6,3.14 µM,COc1ccc(S(=O)(=O)N2c3cc(Cl)ccc3Oc3nc4ccccc4nc32)cc1
7,> 19.5 µM (inactive),CCOc1ccc(N2C(=O)/C(=C/c3cccs3)N(CC(=O)OC)C2=S)cc1
8,> 19.5 µM (inactive),CCOC(=O)N1CCN(c2c(NCc3ccc(Cl)cc3)c(=O)c2=O)CC1
9,> 19.5 µM (inactive),C=CCn1c(O)c(C2=c3ccccc3=NC2=O)s/c1=N/c1nccs1
10,16.1 µM,CCOC(=O)c1cc(-c2ccccc2)sc1NC(=O)COC(=O)c1cccc(S(N)(=O)=O)c1
11,11.9 µM,CCOc1ccc(Nc2nc3c(C)cccc3cc2C#N)cc1
12,> 19.5 µM (inactive),CCOc1c(C(N)=O)c(-c2ccccc2)c2c(=O)[nH]c3ccccc3n12
13,3.89 µM,O=C(Nc1ccc(-c2nc3ccc(NC(=O)c4cccs4)cc3[nH]2)cc1)c1cccs1
14,5.04 µM,COc1cccc(-c2cc(=O)c3cc(NC(=O)c4ccccc4)ccc3[nH]2)c1

# Same assay, conditions: HEK293T Vif multimerization imaging, 24 h; at 0.75 µM (top of the series)
row,"activity, higher = inhibition",SMILES
1,inactive,O=C1S/C(=C/c2ccc(N3CCOCC3)o2)C(=O)N1Cc1c(F)cccc1Cl

# Same assay, conditions: HEK293T Vif multimerization imaging, 24 h; at 2.1 µM (top of the series)
row,"activity, higher = inhibition",SMILES
1,inactive,Cc1ccc(/C=C2/CNC/C(=C/c3ccc(C)cc3)C2=O)cc1
2,inactive,COc1ccc(/C=C2\CN(Cc3ccccc3)C/C(=C\c3ccc(OC)c(O)c3)C2=O)cc1O

# Same assay, conditions: HEK293T Vif multimerization imaging, 24 h; at 6.8 µM (top of the series)
row,"activity, higher = inhibition",SMILES
1,inactive,COc1ccc(OCCN2CCC(C(=O)NC(c3ccccn3)c3ccccc3OC)CC2)cc1 (stereo not drawn)
2,inactive,COc1ccc(C(=O)c2sc3nc(C)cc(-c4cccs4)c3c2N)cc1OC

# Same assay, conditions: HEK293T Vif multimerization imaging, 24 h; at 19.5 µM (top of the series)
row,SMILES,"activity, higher = inhibition"
1,O=C(CCCOc1ccc(Br)cc1)NNC(=O)c1ccncc1,inactive
2,O=C(CCNC(=O)c1ccco1)Nc1ccc(OC(F)(F)F)cc1,inactive
3,O=C(NCC1CC1)NC(=O)c1c(F)cccc1Cl,inactive
4,Cc1ccc(Nc2cc(=O)[nH]c(=O)[nH]2)cc1C,inactive
5,CC(C)(C)NC(=O)NC(=O)COc1ccccn1,inactive
6,COc1c(Br)cc(Br)cc1/C=C1/C(=O)N=C(N)N1C,inactive
7,C=CCNc1sc(C(=O)c2ccc(Br)s2)c(N)c1C#N,inactive
8,COc1c2ccoc2nc2c(OC)c(OC[C@@H](O)C(C)(C)O)ccc12,inactive
9,COc1ccc(CN2C3CCC2CC(NC(=O)c2cc(OC)c(OC)c(OC)c2)C3)cc1 (stereo not drawn),inactive
10,NS(=O)(=O)c1ccc(NC(=O)CCC(=O)N2CCOCC2)cc1,inactive
11,COc1cc(OC)cc(C(=O)NC(C(=O)Nc2ccc3c(c2)OCO3)C(C)C)c1 (stereo not drawn),inactive
12,CNC(=O)c1ccc(NC(=O)c2cc(S(=O)(=O)N(C)C)ccc2N2CCCC2)cc1,inactive
13,Cc1cccc2cc(CN(CC3CCCO3)C(=O)NC3CCCCC3)c(=O)[nH]c12 (stereo not drawn),inactive
14,CC(C)CC(=O)Nc1ccc(-c2nnn(CC(=O)NCc3ccco3)n2)cc1,inactive
15,O=C(C1COc2ccccc2O1)N1CCN(Cc2ccc3c(c2)OCO3)CC1 (stereo not drawn),inactive
16,COc1cc(NC(=O)NCc2ccco2)ccc1-c1ccc(NC(=O)NCc2ccco2)cc1OC,inactive
17,O=C(c1cc(-c2ccccc2O)on1)N1CCCCCC1,inactive

row,SMILES,"activity, higher = inhibition"
1,CCOC(=O)C1CCCN(C(=O)c2cc(S(=O)(=O)N(C)C)ccc2N2CCCC2)C1 (stereo not drawn),inactive
2,CC(=O)Nc1cc(NC(=O)C2C3C=CC(C3)C2C(=O)O)ccc1Cl (stereo not drawn),inactive
3,CCOc1ccc2c(C)c(C(=O)O)oc2c1OCC,inactive
4,Cc1ccc2c(c1)N(CC(=O)NCC1CCCO1)C(=O)C(C(C)C)O2 (stereo not drawn),inactive
5,CCOC(=O)C1(Cc2cccc(OC)c2)CCN(CCO)CC1,inactive
6,COc1ccccc1CNC(=O)CSC1=NCCS1,inactive
7,COc1ccc(C=C2CS(=O)(=O)CC(=Cc3ccc(OC)cc3)C2=O)cc1,inactive
8,CC(C)CN1C(=O)C(=O)N(CC(=O)c2ccc3c(c2)OCO3)C1=O,inactive
9,COc1c2occc2c(OC)c2c(=O)cc(C)oc12,inactive
10,O=C(Nc1cnccn1)Nc1ccccc1Cl,inactive
11,CCN(CC)C(=O)c1ccc(C(=O)c2c(C)cc(C)cc2C)cc1,inactive
12,Cc1cc(NS(=O)(=O)c2ccc(NC(=O)c3ccc(Cl)cc3Cl)cc2)no1,inactive
13,CCCCCCn1c(N(CC)CC)nc2c1c(=O)[nH]c(=O)n2C,inactive
14,CCOC(=O)C1CCCN1C(=O)C1(NC(C)=O)CCCC1 (stereo not drawn) (Ac-[Ac5c]-[ξP]-OEt),inactive
15,O=C(COC(=O)c1ccccc1Br)NC1CCCC1,inactive
16,Cc1nc(SCC(=O)N2CCCC2=O)nc(C)c1C,inactive
17,CN1CCc2c(sc(NC(=O)c3cc(Cl)sc3Cl)c2C(N)=O)C1,inactive

# Results, then the molecule that gave them:
row,"activity, higher = inhibition",SMILES
1,inactive,COc1cccc(NC(=O)c2cc(C(=O)Nc3cccc(OC)c3)n(C)n2)c1
2,inactive,Cc1cc(N2CCN(S(=O)(=O)c3ccc(Cl)c(Cl)c3)CC2)c2ccccc2n1
3,inactive,Cc1ccc(NC(=O)/C=C/C(=O)O)c(NC(=O)c2ccccc2)c1
4,inactive,CC1(C)CC(=O)C2=C(C1)Nc1ccccc1N(C(=O)C1CC1)C2c1ccco1 (stereo not drawn)
5,inactive,CCN(CCCNC(=O)C1CCC(=O)N1Cc1ccc(C)cc1)c1cccc(C)c1 (stereo not drawn)
6,inactive,CCOc1ncccc1C(=O)OCc1ccccc1
7,inactive,CNC(=O)COc1ccccc1C(=O)Nc1ccc2c(c1)oc1ccccc12
8,inactive,O=C(c1cc(COc2cccc3cccnc23)on1)N1CCC[C@H]1CO
9,inactive,CCC(=O)Nc1ccc(-c2cc3ccccc3oc2=O)cc1
10,inactive,Cc1c(NC(=O)CC(O)(C(F)(F)F)C(F)(F)F)c(=O)n(-c2ccccc2)n1C
11,inactive,CCCn1c(=O)c(C(=O)Nc2ncccc2O)c(O)c2ccccc21
12,inactive,O=C(O)c1ccc(-c2nc(-c3cccc(C(F)(F)F)c3)cs2)cc1
13,inactive,Cc1nn2c(COc3ccc(NC(=O)c4ccccc4Cl)cc3)nnc2c2ccccc12
14,inactive,Cc1ccc(C(=O)COC(=O)c2cc(=O)[nH]c3ccccc23)cc1C
15,inactive,CCC(C)NC(=O)Cn1c(=O)n(-c2ccccc2)c(=O)c2ccc(C(=O)NCc3ccco3)cc21 (stereo not drawn)
16,inactive,CN(C)c1ccc(C(O)Cc2nc3ccccc3n2C)cc1 (stereo not drawn)

row,"activity, higher = inhibition",SMILES
1,inactive,CCn1c(SCc2nc3ccccc3c(=O)[nH]2)nc2ccccc2c1=O
2,inactive,CCOC(=O)c1nc(Nc2ccc(C(=O)OC)cc2)c2ccccc2n1
3,inactive,COc1ccccc1C(C)NC(=O)Cc1ccsc1 (stereo not drawn)
4,inactive,Cc1cccc2cc(COC(=O)c3ccco3)c(=O)[nH]c12
5,inactive,COCc1cc(C)nc(SCC(=O)Nc2cccc3cccnc23)c1C#N
6,inactive,Cc1ccc(NC(=O)Cn2ncn3c(cc4ccccc43)c2=O)c(C)c1
7,inactive,COc1ccc(C(=O)NCc2oc(-c3ccccc3)cc2C(=O)O)cc1
8,inactive,Cc1nnc(NC(=O)Cn2nc(C)c3ccccc3c2=O)s1
9,inactive,CC(C(=O)O)c1ccc(N2Cc3ccccc3C2=O)cc1 (stereo not drawn)
10,inactive,COc1ccc(CN(C(=O)Cn2nnc(-c3ccc(C)o3)n2)C(C(=O)NCC2CCCO2)c2ccco2)cc1 (stereo not drawn)
11,inactive,COc1ccc(-c2nnc(SCC(=O)N3CCCc4ccccc43)o2)cc1OC
12,inactive,NS(=O)(=O)c1ccc(-c2ccc(/C=C3\SC(=O)NC3=O)o2)cc1
13,inactive,COc1ccc(CC(=O)OCC(=O)NCc2ccc(Cl)cc2)cc1
14,inactive,N#Cc1c2ccc(OCC(N)=O)cc2n2ccccc12
15,inactive,Cc1ccc(-n2c(SCC(=O)Nc3ccc4c(c3)OCO4)nnc2-c2cccs2)cc1
